According to patent publication US20170266151A1, “Novel salts of 3-[(DIMETHYLAMINO)METHYL]-N--1-BENZOFURAN-2-CARBOXAMIDE, related crystalline forms, method for preparing the same and pharmaceutical compositions containing the same” (Pharmacyclics LLC, priority 2014, published 2017):

Experiments:
[1] = Hygroscopicity by dynamic vapor sorption (DVS); type: physicochemical
Experimental: The hygroscopicity of the crystalline forms of the salts of 3-[(dimethylamino)methyl]-N-{2-[4-(hydroxycarbamoyl)phenoxy]ethyl}-1-benzofuran-2-carboxamide according to the invention was evaluated by dynamic vapor sorption (DVS) using a DVS Intrinsic apparatus. A sample of 5 to 10 mg of the substance, weighed accurately, was disposed in a DVS sample pan operating at 25° C. under controlled humidity. The mass variation was recorded on the basis of a balancing bearing at 50% relative humidity, followed by three subsequent linear phases of increasing (from 50 to 90%), of decreasing (from 90 to 0%) and of increasing (from 0 to 50%) the relative humidity at a speed of 10% per hour. The relative humidity was maintained constant when it reached either 0, or 50, or 90% relative humidity, until the mass variation was less than 0.002% per minute, with a time limit of 15 hours.
The hygroscopicity of the hemipentahydrate crystalline form of the hydrogen sulfate of 3-[(dimethylamino)methyl]-N-{2-[4-(hydroxycarbamoyl)phenoxy]ethyl}-1-benzofuran-2-carboxamide according to the invention was evaluated by dynamic vapor sorption (DVS) using a DVS Intrinsic apparatus. A sample of 5 to 10 mg of the substance, weighed accurately, was disposed in a DVS sample pan operating at 25° C. under controlled humidity. The mass variation was recorded on the basis of a balancing bearing at 50% relative humidity, followed by three subsequent linear phases of increasing (from 50 to 90%), of decreasing (from 90 to 0%) and of increasing (from 0 to 50%) the relative humidity at a speed of 10% per hour. The relative humidity was maintained constant when it reached either 0, or 50, or 90 % relative humidity, until the mass variation is less than 0.002% per minute, with a time limit of 15 hours.

xenograft models = conditions: Buggy et al. 2006; cited from earlier work
tumor cells = tumor cells cultured in vitro; Buggy et al. 2006; cited from earlier work
[2] = salt of WO 2004/092115; use on industrial scale difficult; cited from earlier work

CN(C)Cc1c(C(=O)NCCOc2ccc(C(=O)NO)cc2)oc2ccccc12.O=C(O)C(=O)O [Example 3, Oxalate of 3-[(dimethylamino)methyl]-N-{2-[4-(hydroxycarbamoyl)phenoxy]ethyl}-1-benzofuran-2-carboxamide]
mass variation detected by DVS analysis ([1]; exposure to between 0 and 90% relative humidity at 25° C.): less than 0.2%

CN(C)Cc1c(C(=O)NCCOc2ccc(C(=O)NO)cc2)oc2ccccc12 [abexinostat, 3-[(Dimethylamino)methyl]-N-{2-[4-(hydroxycarbamoyl)phenoxy]ethyl}-1-benzofuran-2-carboxamide]
effect on tumor growth (xenograft models): inhibit tumor growth | effect on apoptosis (tumor cells): induce apoptosis | effect on cell growth (tumor cells): inhibit cell growth

CN(C)Cc1c(C(=O)NCCOc2ccc(C(=O)NO)cc2)oc2ccccc12.Cl [hydrochloride, hydrochloride of 3-[(dimethylamino)methyl]-N-{2-[4-(hydroxycarbamoyl)phenoxy]ethyl}-1-benzofuran-2-carboxamide]
hygroscopic properties [2]: hygroscopic

Hydrogen Sulfate of 3-[(dimethylamino)methyl]-N-{2-[4-(hydroxycarbamoyl)phenoxy]ethyl}-1-benzofuran-2-carboxamide [Example 5]
relative humidity beyond which converted into hemiheptahydrate hydrogen sulfate ([1]; DVS, 25° C., increasing humidity): > 70 % relative humidity

Hydrogen Sulfate of 3-[(dimethylamino)methyl]-N-{2-[4-(hydroxycarbamoyl)phenoxy]ethyl}-1-benzofuran-2-carboxamide [Example 6]
relative humidity below which dehydrated completely ([1]; DVS, 25° C., decreasing humidity to 0%): Below 20 % relative humidity
